Source: patent US10689415B2, “Conjugates of RGD peptides and (bacterio)chlorophyll photosensitizers” (YEDA RESEARCH AND DEVELOPMENT COMPANY LTD., priority 2006, dated 2020)
Values belong to the compound of their own block, whether it stands above or below them.

How the values were obtained:
[1] = tested on: orthotopic human breast MDA-MB-231-RFP primary tumor; assay: Whole-body NIR fluorescence imaging of accumulation in orthotopic MDA-MB-231-RFP tumor; type: in vivo, CD-1 nude female mice; details: for accumulation in the tumor (NIR fluorescence): 15 mg/kg i.v.
Procedure: RFP fluorescence, in units of photons/sec, was detected using 525/50 nm and 612/75 nm filter sets for excitation and emission, respectively, with one second integration time. NIR fluorescence of the different photosensitizers, in units of photons/sec, was detected using 680/30 nm and 847/75 nm filter sets for excitation and emission, respectively, at an integration time of five seconds. Background fluorescence for all quantitative analyses was calculated by recording the average fluorescence (photons/sec)/cm^2 from three animals in three different areas around and within the tumor of untreated animals provided with a similar diet for three days before measurements. Drug accumulation was determined following i.v. administration of molar equivalents of the photosensitizer to the tail vein of mice fed with a chlorophyll-free, purified diet for three days before administration (in order to reduce skin and food autofluorescence). Before imaging, mice were anesthetized by intraperitoneum injection of a 30 μl mixture of 85:15 ketamine:xylazine.
In order to study the accumulation of the photosensitizer in primary mammary tumors, the MDA-MB-231-RFP cells (4×10^6) were implanted orthotopicaly in the mammary pad of the mice. Tumors developed to the wanted size, bigger than 1 cm^3, within 3-4 weeks.
Tumor imaging main filter set comprised: excitation filter 500-550 nm, emission filter 575-650 nm; Background filter set for subtraction the tissue auto fluorescence: excitation filter 460-490 nm, emission filter 575-650 nm. Photosensitizer imaging main filter set: excitation filter 665-695 nm, emission filter 810-875 nm.
Images were taken at these time points post drug injection: 15 min, 1, 2, 3, 4.5, 6, 7.5, 9, 24 hr, 2, 3, 4, 5, 6, 7 days.

[2] = tested on: large MDA-MB-231-RFP tumors; assay: Biodistribution and pharmacokinetics (fluorescence of tissue extracts) in MDA-MB-231-RFP tumor-bearing mice; type: in vivo, CD-1 nude female mice
Procedure: Mammary fat pads (left, bottom nipple) of female mice were inoculated with harvested MDA-MB-231-RFP human breast cancer cells (4×10^6 in […] saline). Tumors were classified as ‘small’ (˜100 mm^3) at one to two weeks from time of cell injection, or ‘large’ after three to four weeks (necrotic tumors, 250 to 500 mm^3). To avoid tumor burden, mice were sacrificed (cervical dislocation) when tumor size reached 10% of body weight or at 90 days post-implantation. External caliper measurements, length (L), width (W) and depth (D) were used to calculate in vivo tumor volume according to the formula: V=L/2·W/2·D/2·π·4/3.
Anesthetized mice were i.v. injected (tail vein) with the different photosensitizer (pigment) conjugates (control group: untreated). The mice were sacrificed at indicated time points and samples of the indicated organs and tissues (blood, tumor, intestine, liver, spleen, kidneys, testies, heart, lung, brain, skin, muscle and fat) were placed in pre-weighted vials and immediately frozen and stored at −20° in the dark until analyzed. Three methods were used for sample preparation: (1) Each sample was thawed and homogenized in DDW (1:10 w/v). Aliquots of the homogenate (500 μl) were lyophilized in Eppendorf test tubes. Then, 60 μl of HNO3 (70%, TraceSelect, Fluka) were added to each dry sample, incubated for 1 h at 90° C. and diluted with DDW to 3 ml. (2) Each sample was diluted (1:2 w/v) in HNO3 (70%, TraceSelect, Fluka). The samples were sonicated for 30 min in boiled water, and left for at least 48 h at room temperature. (3) Applied for assessment of non-metalated conjugates. Each sample was thawed and homogenized in methanol (100 mg tissue/ml) and extracted the next morning by centrifugation (13,000×g, five minutes) at room temperature. In methods (1) and (2), 140 μl from each sample was added to 3.36 ml DDW to give total volume of 3.5 ml and incubated for 1 h at 90° C. Pd concentrations were determined by ICP-MS. According to method (3), the supernatants were diluted in methanol by a factor of two and the drug concentration was determined by fluorescence measurements (Varian-Cary Eclipse spectrofluorimeter, Palo Alto, Calif., USA) at 750 nm (peak values). Drug concentrations were interpolated from a fluorescence calibration curve, based on predetermined drug concentrations using absorption spectroscopy.

MLS ovarian carcinoma = assay: Fluorescence imaging, MLS ovarian carcinoma; type: in vivo, mice; details: 8 mg/kg i.v.
Procedure: Conjugate 26 (8 mg/kg) was i.v. injected into animals bearing MLS ovarian carcinoma. Images on IVIS were taken after 8 and 14 hours.

[3] = tested on: human mammary cancer MDA-MB-231-RFP xenografts; assay: In vivo PDT of MDA-MB-231-RFP xenografts; parameters: species or system CD-1 nude male mice; details: 7.5 mg/kg i.v.
Procedure: For the PDT experiments, MDA-MB-231 RFP cells (4×10^6) were implanted subcutaneously on the backs of the mice and tumors developed to the treatment size (6-8 mm) within 2-3 weeks.
The tumors were illuminated for 10 min. The drug light interval used was 8 hr post drug injection. Transdermal illumination through the mouse skin with 755 nm diode laser at 100 mW/cm^2 (CeramOptec, Germany) was used. After the treatment, the mice were returned to the cage. […] In the light control group, the mice were illuminated for 10 min with 100 mW/cm^2. During the first 2 days post PDT, as needed, the mice received analgesia (2.5 mg/kg Flunexin daily) and 3 days Oxycode in the drinking water. The end point of animal survival is when the size of the tumor reaches 10% of animal weight. Mice are sacrificed at this time (up to 90 days) by cervical dislocation.
FIGS. 35A-35B show two representative examples to local response of human MDA-MB-231-RFP to PDT. […] 35A—Photographs taken from day 0 (before treatment) and after treatment at 1, 4, 7, 12 and 90 days. […] 35B—In vivo whole-body red fluorescence imaging of CD-1 nude male mice bearing MDA-MB-231-RFP orthotopic tumor.

CT26luc colon cancer = assay: In vivo PDT (VTP) of CT26luc colon cancer; parameters: species or system CD-1 nude male mice; details: i.v. injected and illuminated after 8 hours
Procedure: CD-1 nude male mice bearing the different tumor xenografts were anesthetized and 24 (5-24 mg/kg body weight) or 8 (9 mg/kg body weight) were i.v. injected via the tail vein. The tumors were trans-cutaneously illuminated after 3.5, 6, 8, 12 and 24 hours for 5-30 min at light doses of 30-360 J/cm^2. Intensity of illumination: 100-200 mW/cm^2. After treatment, the mice were returned to the cage. The mice were considered cured if tumor free for 90 days after treatment. Mice were euthanized when the tumor diameter reached 15 mm. […] (5) Mixture of 8 and cycloRGDfK: the mice were i.v. injected with mixture of 8 with cycloRGDfK and illuminated after indicated time point. (6) cycloRGDfK alone: the mice were i.v. injected with cycloRGDfK and illuminated after indicated time point. Images were taken at indicated time post PDT.
FIGS. 32A-32F show the therapeutic results of applying 15 mg/kg, 10 min illumination (60 J/cm^2), 8 hours post injection of conjugate 24 to mice bearing CT26luc tumors (bolded protocol in Table 5). 32A—conjugate 24 was i.v. injected 15 mg/kg, 10 min illumination (60 J/cm^2) 8 hours post injection; 32B—overlaid images taken after i.p. injection of luciferin to the mouse described in 32A, using the IVIS system. The first image is black and white, which gives the photograph of the animal. The second image is color overlay of the emitted photon data. […]

[4] = Solubilization for in vitro experiments (water solubility); type: physicochemical
Procedure: Compound 24 was dissolved in 100% DMSO before use and diluted in saline to a final DMSO concentration of 5% v/v.

MDA-MB-231 breast tumor = assay: Biodistribution (Cu by ICP-MS) in mice bearing MDA-MB-231 breast tumor; type: in vivo, female CD-1 nude mice
Procedure: The biodistribution of Cu-conjugate 15 was determined in female CD-1 nude mice of 6-8 weeks-old, weighing 20-23 g and bearing 6-9-mm^3 tumors of human adenocarcinoma cells obtained from breast tissue (MDA-MB-231 cells). The conjugate (30 mg/ml in 5% DMSO/PBS) was injected to the tail vein, and the animals were sacrificed in selected time points. Cu concentrations were determined by ICP-MS as described in Material and Methods.

H5V endothelial cells = assay: Phototoxicity assay (Neutral Red cell viability after illumination); type: cell-based, mouse
Procedure: The light source for in vitro studies was home-built 100-W halogen lamp equipped with a high-pass filter (>650 nm, Safelight filter 1A Eastman Kodak Co., Rochester, N.Y., USA) and a 4-cm water filter. The lamp was used to illuminate (20 mW/cm^2/10 min (12 J/cm^2)) the culture plates from the bottom at room temperature in a dark room.
To determine the pigment photodynamic efficacy in vitro under standard conditions, cells were cultured in 96-well plates and preincubated for 15 or 90 min at 37° C. or 4° C., according to the indicated experiment protocol, with 0-25 μM conjugated or non-conjugated photosensitizer in different media conditions (culture medium DMEM/F12; 10% FCS in medium or 10 μM BSA in medium) in the absence or presence of excess free peptide (100 fold up to 1 mM). The cells were washed and illuminated (20 mW/cm^2 for 10 min). Plates were placed back in the culture incubator for 24 h. Cell survival was determined using Neutral Red cell viability assay. Cell survival was calculated as the percent of the dye accumulated in the untreated controls. […] Three kinds of controls were used: (i) light control: cells illuminated in the absence of pigments; (ii) dark control: cells treated with pigments but kept in the dark; and (iii) untreated cells that were kept in the dark.
Following photosensitization and a 24-h incubation period (37° C.), cell survival was determined by Neutral Red (Fluka Chemie, Buchs, Switzerland) accumulation. After subtraction of assay blanks, net optical density (570 nm) was computed as the average value of triplicates determinations. Cell survival was calculated as the percent of the dye accumulated in the untreated controls.
H5V cells were incubated for 90 min at 37° C. with 0-25 μM of conjugate 23 or compound 10 in different media conditions, illuminated and their survival was determined using Neutral Red viability assay as described in Materials and Methods.
Targeted phototoxicity is defined as one inhibited by the free ligand. Thus, further experiments attempted to block phototoxicity by administration of the free cycloRGDfK, which competes for the cellular binding of conjugate 23. H5V cells were incubated for 90 min at 37° C. with 0-25 μM of compound 10 or conjugate 23 in different media (10% FCS in medium or 10 μM BSA in medium) in the absence or presence of free excess cycloRGDfK (100-fold up to 1 mM). The cells were illuminated and cell survival was determined using Neutral Red viability assay, as described above.
In order to test the endocytosis theory and since the endocytic process is time- and temperature-dependent, H5V cells were incubated at 37° C. and 4° C. for 15 min with 0-20 μM of conjugate 23 in medium containing 10% FCS, in the presence or absence of excess cycloRGDfK (100-fold up to 1 mM). Cells were illuminated and their survival was determined as described above.
The phototoxicity of conjugate 24 was determined by monitoring the survival of cultured H5V endothelial cells following PDT. H5V cells were incubated for 2 hours at 37° C. with 0-25 μM conjugate 24 in culture medium DMEM/F12 with 10% FCS. The cells were illuminated and their survival was determined as described above.
Cells were incubated for 90 min at 37° C. in the presence of 0-20 μM conjugate 11 or compound 8 in 10 μM BSA in medium, illuminated and their survival was determined as described above.

Compound: 3^1-oxo-15-methoxycarbonylmethyl-Rhodobacteriochlorin 13^1-(2-sulfoethyl)amide potassium salt [Compound 25, reference compound]
specific tumor fluorescence ([1]; 9 mg/kg i.v., large necrotic tumors, one hour post injection): No specific tumor fluorescence
accumulation in the tumor (tissue extracts) ([2]; 9 mg/kg i.v.): no accumulation of 25 in the tumor at any time longer than one hour post administration

Compound: 3^1-oxo-15-methoxycarbonylmethyl-Rhodobacteriochlorin 13^1-(2-sulfoethyl)amide-17^3-(GRGDSP)amide potassium salt [Conjugate 26]
accumulation (fluorescence) (MLS ovarian carcinoma; 8 hours): did not present accumulation
accumulation (fluorescence) (MLS ovarian carcinoma; 14 hours): a high level of fluorescence was observed in tumor and liver areas

Compound: 3^1-oxo-15-methoxycarbonylmethyl-Rhodobacteriochlorin 13^1-(2-sulfoethyl)amide-17^3-(cycloRGDfK)amide potassium salt [Conjugate 13]
accumulation in the tumor (NIR fluorescence) ([1]; 15 min to 24 hr post injection, tumor size ~1 cm^3, potassium salt): no specific accumulation in the tumor during the first 24 hours
accumulation in the tumor (NIR fluorescence) ([1]; day 1 to 6 post injection): reaching peak concentration specifically in the tumor from day 2 post injection
peak concentration in the tumors ([2]; 15 mg/kg i.v.): 11 μg drug/gr tumor tissue
peak tumor level as share of the initial drug dose ([2]; 15 mg/kg i.v.): about 3.0%
time of peak concentrations in the tumors ([2]; 15 mg/kg i.v.): eight hours post-injection
time to clear to nearly background levels in normal tissues ([2]; 15 mg/kg i.v.): less than 72 hours
time of peak levels in the normal tissues examined ([2]; 15 mg/kg i.v., blood, liver, kidney): less than five minutes post-injection
whole-body red fluorescence (tumor) signal after PDT ([3]; 90 days after treatment): No signal was detected 90 days after treatment
local tumor response to PDT ([3]; illuminated 8 h later, 755 nm, 100 mW/cm^2, 10 min): after 90 days the wound healed and the animal was cured

water solubility [4]: Water insoluble
Compound: N=C(N)NCCC[C@@H]1NC(=O)[C@H](CCCCN)NC(=O)[C@@H](Cc2ccccc2)NC(=O)[C@H](CC(=O)O)NC(=O)CNC1=O [cycloRGDfK]
PDT effect of controls (CT26luc colon cancer): no PDT effect

Compound: Copper(II) 3^1-oxo-15-methoxycarbonylmethyl-Rhodobacteriochlorin 13^1-(2-sulfoethyl)amide-17^3-(cycloRGDfK)amide potassium salt [Conjugate 15]
tumor intensity in comparison with surrounding normal tissue (MDA-MB-231 breast tumor; at peak): about 3 fold
time of peak accumulation in tumor after injection (MDA-MB-231 breast tumor; i.v. tail vein): 8 to 12 h

Compound: Palladium 3-oxo-15-methoxycarbonylmethyl-Rhodobacteriochlorin-13^1-(2,3-dihydroxypropyl)amide potassium salt [Compound 10]
LD50 (H5V endothelial cells; 10 μM BSA in medium (90 min, 37° C.)): 3.5 to 5 µM
LD50 (H5V endothelial cells; 10 μM BSA in medium (90 min, 37° C.), with free peptide in excess (cycloRGDfK)): 5 µM
LD50 (H5V endothelial cells; 10% FCS (90 min, 37° C.)): 5 to 7 µM
LD50 (H5V endothelial cells; 10% FCS (90 min, 37° C.), with free peptide in excess (cycloRGDfK)): 5 µM
influence of excess cycloRGDfK on phototoxic effects (H5V endothelial cells; 90 min, 37° C., 100-fold up to 1 mM): not influenced by the presence of excess cycloRGDfK
LD50 (H5V endothelial cells; culture medium (90 min, 37° C.)): 7 µM
phototoxic effects (H5V endothelial cells; different media, 90 min, 37° C., 0-25 μM): light- and drug concentration-dependent
water solubility [4]: Water insoluble
